From patent publication US10145848B2, “Small-molecule hydrophobic tagging of fusion proteins and induced degradation of same” (YALE UNIVERSITY, priority 2010, dated 2018) come the findings set out here.

SMILES strings stand for the structures.

Data set [1] relates to NIH-3T3 cells infected with HA-HaloTag(D106A)-H-RasG12V. Briefly: Focus formation assay, HA-HaloTag(D106A)-H-RasG12V cells. It counts as cell-based, mouse. The note with it: 1 μM, 1% FBS, day 6. The procedure:
(§1) One hundred thousand NIH-3T3 cells infected with HA-HaloTag-H-RasG12V and HA-HaloTag(D106A)-H-RasG12V were plated onto 10-cm cell culture plates in 10% FBS with DMEM. The next day, the media was replaced with 1% FBS media and the cells were administered either vehicle or 1 μM HyT13. The media and the drug were replaced every two days. On day 6, the foci were photographed and counted as the number of distinct foci per 1-cm^2 area.
(§2) We next explored the functional utility of HaloTag-based degradation of an oncogene by HyT13 both in cell culture and in mice. The small GTPase H-Ras is one of the most commonly mutated genes in cancer, with up to […] of cancers harboring activating mutations in this gene^35. Activating mutations, such as the H-RasG12V allele, lead to decreased dependence on extracellular mitogenic signals. […] When H-RasG12V expressing cells are grown in culture under low serum conditions they lose cell-to-cell contact inhibition and form distinct foci instead of growing as a cellular monolayer. Furthermore, these transformed cells are capable of tumor formation when injected into immuno-compromised nude mice^36,37. We investigated whether (1) HaloTag-H-RasG12V driven focus formation can be suppressed in NIH-3T3 cells and (2) HaloTag-H-RasG12V driven tumor burden in mice can be reduced by administration of HyT13. […]

Data set [2] deals with NIH-3T3 cells infected with HA-HaloTag-H-RasG12V. Briefly: Focus formation assay, HA-HaloTag-H-RasG12V cells. It counts as cell-based, mouse. To be noted: 1 μM, 1% FBS, day 6. The procedure: as §1, §2
Data set [3] deals with T1, HA-HaloTag(D106A)-H-RasG12V (UniProt P01112+P0A3G2, C176G/D106A/G12V/H272F/K175M/Y273L).
T1 construct: The HaloTag protein was obtained from pHT2 vector (Promega); H-Ras carrying G12V (fusion partner, same polypeptide); expressed in transfected cells; host or cells: NIH-3T3, retroviral infection (pEYK3.1)
Briefly: Immunoblotting of HA-HaloTag(D106A)-H-RasG12V in NIH-3T3 cells. It counts as cell-based. To be noted: 1 μM, 24 hours. The procedure: (a) NIH-3T3 cells were retrovirally infected with a construct expressing either HA-HaloTag-HRas(G12V) or HA-HaloTag(D106A)-HRas(G12V). The cells were then treated with vehicle or 1 μM HyT13 for 24 hours. The lysates were prepared for immunoblotting and the blots were probed with anti-HA and anti-β-actin antibodies. (b) One hundred thousand NIH-3T3 cells infected with HA-HaloTag-HRas(G12V) or HA-HaloTag(D106A)-HRas(G12V) were plated in 10% FBS containing medium onto 10-cm plates. The next day, the medium was replaced with 1% FBS containing medium, along with vehicle or 1 μM HyT13. The media was refreshed every 2 days, and the plates were pictured on day 6. Bar, 5 mm. (c) Quantification of foci as described in (b). The number of foci/cm^2 was counted from three separate plates, with error bars representing SEM. […] Tumor size was measured daily, and the tumor volume was calculated. […]
The indicated cells were washed twice with cold PBS and the cells were lysed in lysis buffer (1×PBS, 1% NP-40, 1 mM EDTA, 40 mM HEPES) with protease inhibitors. […] The total protein concentration was determined by Bradford assay and 50 μg of protein was loaded onto an 8% Bis-Tris gel. […] The blots were processed by standard procedures with indicated antibodies, and the band intensities were quantified by ImageJ. […]
On the technique in general: A western blot detects proteins with antibodies after separation by electrophoresis.

Data set [4] in a line: Serum HyT13 determination (bio-reporter assay). To be noted: mouse, intraperitoneal, 25 mg/kg IP, Swiss Webster mice, read-out: blood serum concentration. It counts as in vivo. The procedure: Webster Swiss mice received IP injections of 25 mg/kg of HyT13. The injection volume was 10 μL, consisting of 5 μL, of Cremophor EL excipient and 5 μL, of HyT13 in DMSO. Blood was collected from the carotid artery 1 and 24 hours after the injection. The blood was allowed to coagulate for 10 minutes, centrifuged at 10,000 g for 5 minutes and the serum was pipetted into a new tube. Ten microliters of the serum were used for a bio-reporter assay, consisting of the ability to degrade luciferase activity in HEK 293T luciferase-HaloTag cells. The serum concentration of HyT13 was based on a concentration curve of HyT13 performed alongside the bio-reporter assay. […] Each treatment group consisted of three mice. Shown is the mean serum HyT13 level±SEM.
To examine whether the HaloTag:HyT13 based system could be used in mouse models to relieve the H-RasG12V-driven tumor burden, we first evaluated the pharmacokinetics of HyT13. We performed a maximum tolerated dose experiment with HyT13 in nude mice at doses up to 100 mg/kg over a 14-day treatment regimen. […] Next, we sought to determine the serum bioavailability of HyT13 following injections. HyT13 was administered at 25 mg/kg by intraperitoneal (IP) injection into Swiss Webster mice and the serum was collected at 1 and 24 hours post-injection. […]
In general terms: A reporter such as luciferase makes a cellular process visible.

T1 sequence (P0A3G2+P01112 fused with the stated changes): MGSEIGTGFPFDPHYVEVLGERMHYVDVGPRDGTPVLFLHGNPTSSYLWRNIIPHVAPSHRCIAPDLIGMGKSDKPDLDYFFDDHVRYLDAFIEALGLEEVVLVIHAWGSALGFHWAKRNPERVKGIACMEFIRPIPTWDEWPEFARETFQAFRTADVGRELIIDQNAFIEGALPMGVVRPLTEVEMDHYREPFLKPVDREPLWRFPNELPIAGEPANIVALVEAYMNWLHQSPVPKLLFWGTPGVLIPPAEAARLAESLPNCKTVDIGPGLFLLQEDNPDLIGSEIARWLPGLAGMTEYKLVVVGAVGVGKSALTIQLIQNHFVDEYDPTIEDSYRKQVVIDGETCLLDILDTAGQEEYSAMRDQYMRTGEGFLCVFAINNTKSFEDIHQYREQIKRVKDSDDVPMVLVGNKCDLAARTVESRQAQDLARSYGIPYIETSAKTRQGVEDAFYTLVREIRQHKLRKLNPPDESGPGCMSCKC

`O=C(CC12CC3CC(CC(C3)C1)C2)NCCOCCOCCCCCCCl` [HyT13, 2-((3r,5r,7r)-Adamantan-1-yl)-N-(2-(2-((6-chlorohexyl)oxy)ethoxy)ethyl)acetamide]: the focus formation entry in data set [1] was “had formed many foci”; in data set [2] it was “had grown a normal monolayer of cells”. Also, in data set [3], the “degradation of HA-HaloTag(D106A)-H-RasG12V” value is given as “unaffected”. The concentration at 1 h in data set [4] (1 hour post administration) was around 2000 nM. For the same molecule, in data set [4] (24 hours), the concentration at 24 h was around 500 nM.
